Experimental data from patent US20050032187A1, “Novel peptide-forming enzyme, microbe producing the enzyme and method for producing peptide using them” (Ajinomoto Co., Inc., priority 2003, published 2005).
Residues, ends and D or L forms follow the SMILES beside them.

System: not listed separately
Test: Comparison of ability to catalyze peptide production with known enzymes
Details: 100 mM L-alanine methyl ester, 200 mM L-glutamine, pH 9.0, 25° C.; amount of enzyme added as in Table 14

Row | Molecule | L-Ala-L-Gln production rate (mM/mm)
1 | Bromelain | 0.0062 mM/mm
2 | Chymopapain: thiol endopeptidase described in EP 359399B1, purified enzyme manufactured by Sigma | 0.0100 mM/mm
3 | Ficin | 0.0096 mM/mm
4 | Papain: thiol endopeptidase described in EP 359399B1, purified enzyme manufactured by Sigma (protein, UniProt P00784 134-345, looked up) Papain: IPEYVDWRQKGAVTPVKNQGSCGSCWAFSAVVTIEGIIKIRTGNLNEYSEQELLDCDRRSYGCNGGYPWSALQLVAQYGIHYRNTYPYEGVQRYCRSREKGPYAAKTDGVRQVQPYNEGALLYSIANQPVSVVLEAAGKDFQLYRGGIFVGPCGNKVDHAVAAVGYGPNYILIKNSWGTGWGENGYIRIKRGTGNSYGVCGLYTSSFYPVKN | 0.0106 mM/mm
5 | Carboxypeptidase Y: known enzyme described in EP 278787A1, purified enzyme manufactured by Sigma (protein, UniProt P00729 112-532, looked up) Carboxypeptidase Y: KIKDPKILGIDPNVTQYTGYLDVEDEDKHFFFWTFESRNDPAKDPVILWLNGGPGCSSLTGLFFELGPSSIGPDLKPIGNPYSWNSNATVIFLDQPVNVGFSYSGSSGVSNTVAAGKDVYNFLELFFDQFPEYVNKGQDFHIAGESYAGHYIPVFASEILSHKDRNFNLTSVLIGNGLTDPLTQYNYYEPMACGEGGEPSVLPSEECSAMEDSLERCLGLIESCYDSQSVWSCVPATIYCNNAQLAPYQRTGRNVYDIRKDCEGGNLCYPTLQDIDDYLNQDYVKEAVGAEVDHYESCNFDINRNFLFAGDWMKPYHTAVTDLLNQDLPILVYAGDKDFICNWLGNKAWTDVLPWKYDEEFASQKVRNWTASITDEVAGEVKSYKHFTYLRVFNGGHMVPFDVPENALSMVNEWIHGGFSL | 0.0257 mM/mm

System: Empedobacter brevis strain FERM BP-8113 microbial cells
Test: Production of peptide using microbial cells of Empedobacter brevis
Assay type: cell-based
Details: 1 mL of 100 g/L cell suspension + 1 mL buffer with 200 mM carboxy component (HCl salt) and 400 mM amino acid, 10 mM EDTA, pH 9.0, 18° C., 2 hours
Method: Although the following provides a more detailed explanation of the present invention through its examples, the present invention is not limited to these examples. In addition to confirmation by ninhydrin coloring of thin-film chromatograms (qualitative), quantitative determinations were made by the following high-performance liquid chromatography in order to assay products. Column: […] ODS-2 (manufactured by GL Science, Inc.), eluate: aqueous phosphate solution containing 5.0 mM sodium 1-octanesulfonate (pH 2.1): methanol=100: 15 to 50, flow rate: 1.0 mL/min, detection: 210 nanometers (hereinafter, “nm”). A 50 mL medium (pH 6.2) containing 5 grams (hereinafter, “g”) of glucose, 5 g of ammonium sulfate, 1 g of monopotassium phosphate, 3 g of dipotassium phosphate, 0.5 g of magnesium sulfate, 10 g of yeast extract and 10 g of peptone in 1 liter (hereinafter, “L”) was transferred to a 500 mL Sakaguchi flask and sterilized at 115° C. for 15 minutes. This medium was then inoculated with one loopful of the culture broth of Empedobacter brevis strain FERM BP-8113 (Depositary institution: National Institute for Advanced Industrial Science and Technology, International Patent Organism Depositary, Address of depositary institution: Chuo Dai-6,1-1 Higashi 1-Chome, Tsukuba-shi, Ibaraki-ken, Japan, International deposit transfer date: Jul. 8, 2002) that had been cultured at 30° C. for 16 hours in the same medium, followed by shake culturing at 30° C. for 16 hours and 120 strokes/min.

Row | Molecule | Formed peptide
6 | NCC(=O)N[C@@H](Cc1cnc[nH]1)C(=O)O [Gly-L-His] (H-Gly-His-OH) | 22.1 mM
7 | C[C@H](N)C(=O)N[C@@H](CCCN=C(N)N)C(=O)O [L-Ala-L-Arg] (H-Ala-Arg-OH) | 72.1 mM
8 | C[C@H](N)C(=O)N[C@@H](CCC(N)=O)C(=O)O [L-Ala-L-Gln, L-alanyl-L-glutamine] (H-Ala-Gln-OH) | 68.0 mM
9 | C[C@H](N)C(=O)N[C@@H](Cc1cnc[nH]1)C(=O)O [L-Ala-L-His] (H-Ala-His-OH) | 52.1 mM
10 | CC(C)C[C@H](NC(=O)[C@H](C)N)C(=O)O [L-Ala-L-Leu] (H-Ala-Leu-OH) | 38.2 mM
11 | CSCC[C@H](NC(=O)[C@H](C)N)C(=O)O [L-Ala-L-Met] (H-Ala-Met-OH) | 68.3 mM
12 | C[C@H](N)C(=O)N[C@@H](Cc1ccccc1)C(=O)O [L-Ala-L-Phe] | 62.4 mM
13 | C[C@H](N)C(=O)N[C@@H](CO)C(=O)O [L-Ala-L-Ser] (H-Ala-Ser-OH) | 51.3 mM
14 | CC[C@H](C)[C@H](N)C(=O)N[C@@H](CCSC)C(=O)O [L-Ile-L-Met] (H-Ile-Met-OH) | 8.3 mM
15 | CSCC[C@H](N)C(=O)N[C@@H](Cc1ccccc1)C(=O)O [L-Met-L-Phe] (H-Met-Phe-OH) | 28.5 mM
16 | N[C@@H](CO)C(=O)N[C@@H](CO)C(=O)O [L-Ser-L-Ser] (H-Ser-Ser-OH) | 29.0 mM
17 | CC(C)C[C@H](NC(=O)[C@@H](N)[C@@H](C)O)C(=O)O [L-Thr-L-Leu] (H-Thr-Leu-OH) | 23.0 mM
18 | CSCC[C@H](NC(=O)[C@@H](N)C(C)C)C(=O)O [L-Val-L-Met] (H-Val-Met-OH) | 10.5 mM

System: enzyme (SP-Sepharose HP fraction) derived from Sphingobacterium sp. strain FERM BP-8124
Test: not given
Assay type: biochemical
Details: Table 15-2; carboxy 100 mM, L-Gln 150 mM, 0.33 units, pH 9.0, 25° C., 1.5 hours; 0.1% Tween-80 with L-Tyr-OMe
Method: The following procedure after centrifugal separation was carried out either on ice or at 4° C. Sphingobacterium sp. strain FERM BP-8124 (Depositary institution: National Institute for Advanced Industrial Science and Technology, International Patent Organism Depositary, Address of depositary institution: Chuo Dai-6,1-1 Higashi 1-Chome, Tsukuba-shi, Ibaraki-ken, Japan, International deposit date: Jul. 22, 2002) was cultured in the same manner as Example 21, and the microbial cells were collected by centrifugal separation (10,000 rpm, 15 minutes). After washing 2 g of microbial cells with 20 mM Tris-HCl buffer (pH 7.6), they were suspended in 8 ml of the same buffer and subjected to ultrasonic crushing treatment for 45 minutes at 195 W. This ultrasonic crushing liquid was then centrifuged (10,000 rpm, 30 minutes) to remove the crushed cell fragments and obtain an ultrasonic crushing liquid supernatant. This ultrasonic crushing liquid supernatant was dialyzed overnight against 20 mM Tris-HCl buffer (pH 7.6) followed by removal of the insoluble fraction by ultracentrifugation (50,000 rpm, 30 minutes) to obtain a soluble fraction in the form of the supernatant liquid. The resulting soluble fraction was applied to a Q-Sepharose HP column (manufactured by Amersham) pre-equilibrated with Tris-HCl buffer (pH 7.6), and the active fraction was collected from the non-adsorbed fraction. This active fraction was dialyzed overnight against 20 mM acetate buffer (pH 5.0) followed by removal of the insoluble fraction by centrifugal separation (10,000 rpm, 30 minutes) to obtain a dialyzed fraction in the form of the supernatant liquid. This dialyzed fraction was then applied to an SP-Sepharose HP column (manufactured by Amersham) pre-equilibrated with 20 mM acetate buffer (pH 5.0) to obtain the active fraction in which enzyme was eluted at a linear concentration gradient of the same buffer containing 0 tol M NaCl.
Substrate specificity was examined for enzyme derived from Sphingobacterium sp. strain FERM BP-8124 (Depositary institution: National Institute for Advanced Industrial Science and Technology, International Patent Organism Depositary, Address of depositary institution: Central. 6, 1-1-1 Higashi, Tsukuba City, Ibaraki Prefecture, Japan, International deposit date: Jul. 22, 2002). 100 μl of 100 mM borate buffer (pH 9.0) containing the various carboxy components at a final concentration of 100 mM and the various amine components at a final concentration of 150 mM shown in Tables 15-1 to 15-4, the SP-Sepharose HP fraction enzyme purified in Example 22 (addition of 0.33 units in the reaction liquid) and 10 mM EDTA were allowed to react at 25° C. for 1.5 hours.
In addition, hydrochlorides were used for all carboxy components. […]

Row | Produced peptide | Molecule
19 | 0.1 mM | NC(=O)CC[C@H](NC(=O)[C@@H](N)CCC(N)=O)C(=O)O [L-Gln-L-Gln] (H-Gln-Gln-OH)
20 | 6.4 mM | CC[C@H](C)[C@H](N)C(=O)N[C@@H](CCC(N)=O)C(=O)O [L-Ile-L-Gln] (H-Ile-Gln-OH)
21 | 32.6 mM | CSCC[C@H](N)C(=O)N[C@@H](CCC(N)=O)C(=O)O [L-Met-L-Gln] (H-Met-Gln-OH)
22 | 0.8 mM | NC(=O)CC[C@H](NC(=O)[C@@H](N)Cc1ccccc1)C(=O)O [L-Phe-L-Gln]
23 | 1.8 mM | NC(=O)CC[C@H](NC(=O)[C@@H]1CCCN1)C(=O)O [L-Pro-L-Gln] (H-Pro-Gln-OH)
24 | 12.9 mM | NC(=O)CC[C@H](NC(=O)[C@@H](N)CO)C(=O)O [L-Ser-L-Gln] (H-Ser-Gln-OH)
25 | 36.1 mM | C[C@@H](O)[C@H](N)C(=O)N[C@@H](CCC(N)=O)C(=O)O [L-Thr-L-Gln] (H-Thr-Gln-OH)
26 | 0.6 mM | NC(=O)CC[C@H](NC(=O)[C@@H](N)Cc1ccc(O)cc1)C(=O)O [L-Tyr-L-Gln] (H-Tyr-Gln-OH)
27 | 8.2 mM | CC(C)[C@H](N)C(=O)N[C@@H](CCC(N)=O)C(=O)O [L-Val-L-Gln] (H-Val-Gln-OH)
28 | 0.05 mM | NC(=O)CC[C@H](NC(=O)[C@@H](N)CC(=O)O)C(=O)O [α-L-Asp-L-Gln] (H-Asp-Gln-OH)

Further lines, the molecule ahead of its results:

Row | Molecule | Produced peptide
29 | NCC(=O)N[C@@H](CCC(N)=O)C(=O)O [Gly-L-Gln] (H-Gly-Gln-OH) | 61.1 mM
30 | NC(=O)CC[C@H](NC(=O)[C@@H](N)CCCN=C(N)N)C(=O)O [L-Arg-L-Gln] (H-Arg-Gln-OH) | 17.2 mM

System: Sphingobacterium sp. strain FERM BP-8124 microbial cells
Test: Production of L-alanyl-L-glutamine using microbial cells of Sphingobacterium sp.
Assay type: cell-based
Details: 0.1 mL of 100 g/L cell suspension + 0.1 mL buffer with 200 mM L-alanyl methyl ester hydrochloride and 400 mM L-glutamine, pH 9.0, 25° C., 120 minutes
Method: A 50 ml medium (pH 7.0) containing 5 g of glucose, 5 g of ammonium sulfate, 1 g of monopotassium phosphate, 3 g of dipotassium phosphate, 0.5 g of magnesium sulfate, 10 g of yeast extract and 10 g of peptone in 1 L was transferred to a 500 mL Sakaguchi flask and sterilized at 115° C. for 15 minutes for culturing Sphingobacterium sp. strain FERM BP-8124 (Depositary institution: National Institute for Advanced Industrial Science and Technology, International Patent Organism Depositary, Address of depositary institution: Chuo Dai-6,1-1 Higashi 1-Chome, Tsukuba-shi, Ibaraki-ken, Japan, International deposit date: Jul. 22, 2002). This medium was then inoculated with one loopful of Sphingobacterium sp. strain FERM BP-8124 (Depositary institution: National Institute for Advanced Industrial Science and Technology, International Patent Organism Depositary, Address of depositary institution: Chuo Dai-6,1-1 Higashi 1-Chome, Tsukuba-shi, Ibaraki-ken, Japan, International deposit date: Jul. 22, 2002) cultured at 30° C. for 24 hours in a slant agar medium (agar: 20 g/L, pH 7.0) containing 5 g of glucose, 10 g of yeast extract, 10 g of peptone and 5 g of NaCl in 1 L, followed by shake culturing at 30° C. for 20 hours and 120 strokes/minute. A 1 ml aliquot of this culture broth was then added to the aforementioned medium (50 ml/500 mL Sakaguchi flask) and cultured at 30° C. for 18 hours. […]

Row | Molecule | amount of L-alanyl-L-glutamine produced
31 | C[C@H](N)C(=O)N[C@@H](CCC(N)=O)C(=O)O [L-Ala-L-Gln, L-alanyl-L-glutamine] (H-Ala-Gln-OH) | 62 mM
